# Experimental data published in the supplement of paper PMC10307832.
# Tests used:
# Experiment in all cases: relative viability (nuclei count vs DMSO), 5 days (fraction); higher = more cells survive
# ABC-1 = tested on: ABC-1
# Outline: (§1)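 Lung cancer cell lines, seeded in 1536-well plates, were treated the following day by pin tool with a single drug or with five library-drug doses (not always all listed) in √10 steps on top of a fixed anchor-drug dose. Cells were fixed and nuclei stained in one step after 5 days, and nuclei were counted. Relative viability is the nuclei count for treated wells divided by that for vehicle wells, reported as medians of duplicate plates.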
# BEN = tested on: BEN
# Outline: as §1
# EPLC-272H = tested on: EPLC-272H
# Outline: as §1
# HCC-827 = tested on: HCC-827
# Outline: as §1
# HOP-62 = tested on: HOP-62
# Outline: as §1
# LU99A = tested on: LU99A
# Outline: as §1
# NCI-H1355 = tested on: NCI-H1355
# Outline: as §1
# NCI-H1666 = tested on: NCI-H1666
# Outline: as §1
# NCI-H1792 = tested on: NCI-H1792
# Outline: as §1
# NCI-H1975 = tested on: NCI-H1975
# Outline: as §1
# NCI-H2170 = tested on: NCI-H2170
# Outline: as §1
# NCI-H23 = tested on: NCI-H23
# Outline: as §1
# NCI-H2405 = tested on: NCI-H2405
# Outline: as §1
# NCI-H3122 = tested on: NCI-H3122
# Outline: as §1
# NCI-H322M = tested on: NCI-H322M
# Outline: as §1
# NCI-H358 = tested on: NCI-H358
# Outline: as §1
# NCI-H520 = tested on: NCI-H520
# Outline: as §1
# NCI-H596 = tested on: NCI-H596
# Outline: as §1
# NCI-H647 = tested on: NCI-H647
# Outline: as §1
# NCI-H727 = tested on: NCI-H727
# Outline: as §1
# NCI-H838 = tested on: NCI-H838
# Outline: as §1
# PC-14 = tested on: PC-14
# Outline: as §1
# UMC-11 = tested on: UMC-11
# Outline: as §1
structure (smiles),measurement,setting,value
O=c1[nH]c2ccccc2n1C1CCN(CCCC(c2ccc(F)cc2)c2ccc(F)cc2)CC1 [Pimozide] + Nc1ncn([C@H]2C[C@H](O)[C@@H](CO)O2)c(=O)n1 [Decitabine] (partner 2 µM),relative viability,ABC-1; first compound 0.08 µM,1.18
same,relative viability,ABC-1; first compound 0.253 µM,0.831
same,relative viability,ABC-1; first compound 0.8 µM,1.22
same,relative viability,ABC-1; first compound 2.53 µM,1.08
same,relative viability,ABC-1; first compound 8 µM,1.02
same,relative viability,BEN; first compound 0.08 µM,0.805
same,relative viability,BEN; first compound 0.253 µM,0.71
same,relative viability,BEN; first compound 0.8 µM,0.757
same,relative viability,BEN; first compound 2.53 µM,0.62
same,relative viability,BEN; first compound 8 µM,0.767
same,relative viability,EPLC-272H; first compound 0.08 µM,0.309
same,relative viability,EPLC-272H; first compound 0.253 µM,0.362
same,relative viability,EPLC-272H; first compound 0.8 µM,0.33
same,relative viability,EPLC-272H; first compound 2.53 µM,0.32
same,relative viability,EPLC-272H; first compound 8 µM,0.318
same,relative viability,HCC-827; first compound 0.253 µM,0.284
same,relative viability,HCC-827; first compound 0.8 µM,0.348
same,relative viability,HCC-827; first compound 2.53 µM,0.334
same,relative viability,HCC-827; first compound 8 µM,0.32
same,relative viability,HOP-62; first compound 0.08 µM,0.231
same,relative viability,HOP-62; first compound 0.253 µM,0.228
same,relative viability,HOP-62; first compound 2.53 µM,0.245
same,relative viability,HOP-62; first compound 8 µM,0.244
same,relative viability,LU99A; first compound 0.08 µM,0.979
same,relative viability,LU99A; first compound 0.8 µM,0.97
same,relative viability,LU99A; first compound 2.53 µM,0.829
same,relative viability,LU99A; first compound 8 µM,0.847
same,relative viability,NCI-H1355; first compound 0.08 µM,0.345
same,relative viability,NCI-H1355; first compound 0.253 µM,0.332
same,relative viability,NCI-H1355; first compound 0.8 µM,0.339
same,relative viability,NCI-H1355; first compound 2.53 µM,0.339
same,relative viability,NCI-H1355; first compound 8 µM,0.337
same,relative viability,NCI-H1666; first compound 0.08 µM,0.688
same,relative viability,NCI-H1666; first compound 0.253 µM,0.738
same,relative viability,NCI-H1666; first compound 0.8 µM,0.696
same,relative viability,NCI-H1666; first compound 2.53 µM,0.695
same,relative viability,NCI-H1666; first compound 8 µM,0.784
same,relative viability,NCI-H1792; first compound 0.08 µM,0.59
same,relative viability,NCI-H1792; first compound 0.253 µM,0.53
same,relative viability,NCI-H1792; first compound 0.8 µM,0.33
same,relative viability,NCI-H1792; first compound 2.53 µM,0.534
same,relative viability,NCI-H1792; first compound 8 µM,0.547
same,relative viability,NCI-H1975; first compound 0.08 µM,0.347
same,relative viability,NCI-H1975; first compound 0.253 µM,0.387
same,relative viability,NCI-H1975; first compound 0.8 µM,0.391
same,relative viability,NCI-H1975; first compound 2.53 µM,0.368
same,relative viability,NCI-H1975; first compound 8 µM,0.419
same,relative viability,NCI-H2170; first compound 0.08 µM,0.43
same,relative viability,NCI-H2170; first compound 0.253 µM,0.453
same,relative viability,NCI-H2170; first compound 0.8 µM,0.432
same,relative viability,NCI-H2170; first compound 2.53 µM,0.477
same,relative viability,NCI-H2170; first compound 8 µM,0.454
same,relative viability,NCI-H23; first compound 0.08 µM,0.304
same,relative viability,NCI-H23; first compound 0.253 µM,0.301
same,relative viability,NCI-H23; first compound 0.8 µM,0.294
same,relative viability,NCI-H23; first compound 2.53 µM,0.333
same,relative viability,NCI-H23; first compound 8 µM,0.325
same,relative viability,NCI-H2405; first compound 0.08 µM,0.71
same,relative viability,NCI-H2405; first compound 0.253 µM,0.686
same,relative viability,NCI-H2405; first compound 0.8 µM,0.695
same,relative viability,NCI-H2405; first compound 2.53 µM,0.69
same,relative viability,NCI-H2405; first compound 8 µM,0.669
same,relative viability,NCI-H3122; first compound 0.08 µM,0.435
same,relative viability,NCI-H3122; first compound 0.253 µM,0.392
same,relative viability,NCI-H3122; first compound 0.8 µM,0.418
same,relative viability,NCI-H3122; first compound 2.53 µM,0.413
same,relative viability,NCI-H3122; first compound 8 µM,0.416
same,relative viability,NCI-H322M; first compound 0.08 µM,0.581
same,relative viability,NCI-H322M; first compound 0.253 µM,0.705
same,relative viability,NCI-H322M; first compound 0.8 µM,0.719
same,relative viability,NCI-H322M; first compound 2.53 µM,0.772
same,relative viability,NCI-H322M; first compound 8 µM,0.632
same,relative viability,NCI-H358; first compound 0.08 µM,0.196
same,relative viability,NCI-H358; first compound 0.253 µM,0.219
same,relative viability,NCI-H358; first compound 0.8 µM,0.315
same,relative viability,NCI-H358; first compound 2.53 µM,0.213
same,relative viability,NCI-H358; first compound 8 µM,0.228
same,relative viability,NCI-H520; first compound 0.08 µM,0.455
same,relative viability,NCI-H520; first compound 0.253 µM,0.428
same,relative viability,NCI-H520; first compound 0.8 µM,0.453
same,relative viability,NCI-H520; first compound 2.53 µM,0.519
same,relative viability,NCI-H520; first compound 8 µM,0.613
same,relative viability,NCI-H596; first compound 0.08 µM,0.97
same,relative viability,NCI-H596; first compound 0.253 µM,0.931
same,relative viability,NCI-H596; first compound 0.8 µM,0.986
same,relative viability,NCI-H596; first compound 2.53 µM,0.85
same,relative viability,NCI-H596; first compound 8 µM,1.08
same,relative viability,NCI-H647; first compound 0.08 µM,0.37
same,relative viability,NCI-H647; first compound 0.253 µM,0.363
same,relative viability,NCI-H647; first compound 0.8 µM,0.392
same,relative viability,NCI-H647; first compound 2.53 µM,0.442
same,relative viability,NCI-H647; first compound 8 µM,0.508
same,relative viability,NCI-H727; first compound 0.08 µM,0.834
same,relative viability,NCI-H727; first compound 0.253 µM,0.588
same,relative viability,NCI-H727; first compound 0.8 µM,0.933
same,relative viability,NCI-H727; first compound 2.53 µM,0.98
same,relative viability,NCI-H727; first compound 8 µM,0.856
same,relative viability,NCI-H838; first compound 0.08 µM,0.487
same,relative viability,NCI-H838; first compound 0.253 µM,0.395
same,relative viability,NCI-H838; first compound 0.8 µM,0.42
same,relative viability,NCI-H838; first compound 2.53 µM,0.43
same,relative viability,NCI-H838; first compound 8 µM,0.469
same,relative viability,PC-14; first compound 0.253 µM,0.221
same,relative viability,PC-14; first compound 0.8 µM,0.228
same,relative viability,PC-14; first compound 2.53 µM,0.144
same,relative viability,PC-14; first compound 8 µM,0.231
same,relative viability,UMC-11; first compound 0.08 µM,0.638
same,relative viability,UMC-11; first compound 0.253 µM,0.579
same,relative viability,UMC-11; first compound 0.8 µM,0.53
same,relative viability,UMC-11; first compound 2.53 µM,0.593
same,relative viability,UMC-11; first compound 8 µM,1.03
